Assay results from ChEMBL document CHEMBL3627616, “New multifunctional melatonin-derived benzylpyridinium bromides with potent cholinergic, antioxidant, and neuroprotective properties as innovative drugs for Alzheimer's disease” (Eur J Med Chem, 2015).
Calls of active or inactive are those of the source. No cut-off for these calls is given here.

Key:
Acetylcholinesterase [1] = target: T1, Acetylcholinesterase (Homo sapiens, UniProt P22303); assay: Inhibition of human recombinant AChE using acetylthiocholine iodide as substrate preincubated for 5 mins followed by substrate addition by Ellman's method
T1 sequence (P22303 whole entry): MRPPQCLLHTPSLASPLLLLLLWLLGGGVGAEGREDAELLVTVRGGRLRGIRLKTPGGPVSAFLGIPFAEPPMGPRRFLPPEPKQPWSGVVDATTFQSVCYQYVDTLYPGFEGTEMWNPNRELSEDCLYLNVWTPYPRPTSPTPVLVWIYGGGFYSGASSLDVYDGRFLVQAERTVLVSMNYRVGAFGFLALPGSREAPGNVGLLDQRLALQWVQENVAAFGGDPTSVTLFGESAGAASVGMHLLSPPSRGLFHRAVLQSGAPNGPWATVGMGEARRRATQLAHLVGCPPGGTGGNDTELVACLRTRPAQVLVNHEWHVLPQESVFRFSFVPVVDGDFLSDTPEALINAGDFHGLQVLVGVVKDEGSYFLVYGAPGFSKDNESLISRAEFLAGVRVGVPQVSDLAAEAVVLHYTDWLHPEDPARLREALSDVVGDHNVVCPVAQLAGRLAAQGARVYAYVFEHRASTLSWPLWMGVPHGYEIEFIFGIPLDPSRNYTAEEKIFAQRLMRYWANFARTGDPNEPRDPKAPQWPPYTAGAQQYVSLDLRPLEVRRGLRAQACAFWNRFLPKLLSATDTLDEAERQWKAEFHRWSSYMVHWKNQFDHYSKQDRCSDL

Homo sapiens = organism: Homo sapiens; assay: Selectivity ratio of IC50 for human serum BuChE to IC50 for human recombinant AChE
[2] = Antioxidant activity assessed as trolox equivalent of AAPH radical scavenging activity preincubated for 15 mins followed by addition of AAPH solution measured for 80 mins by ORAC-FL method; format: physicochemical
Cholinesterase = Cholinesterase (Homo sapiens, UniProt P06276)
Chain of Cholinesterase (P06276 whole entry): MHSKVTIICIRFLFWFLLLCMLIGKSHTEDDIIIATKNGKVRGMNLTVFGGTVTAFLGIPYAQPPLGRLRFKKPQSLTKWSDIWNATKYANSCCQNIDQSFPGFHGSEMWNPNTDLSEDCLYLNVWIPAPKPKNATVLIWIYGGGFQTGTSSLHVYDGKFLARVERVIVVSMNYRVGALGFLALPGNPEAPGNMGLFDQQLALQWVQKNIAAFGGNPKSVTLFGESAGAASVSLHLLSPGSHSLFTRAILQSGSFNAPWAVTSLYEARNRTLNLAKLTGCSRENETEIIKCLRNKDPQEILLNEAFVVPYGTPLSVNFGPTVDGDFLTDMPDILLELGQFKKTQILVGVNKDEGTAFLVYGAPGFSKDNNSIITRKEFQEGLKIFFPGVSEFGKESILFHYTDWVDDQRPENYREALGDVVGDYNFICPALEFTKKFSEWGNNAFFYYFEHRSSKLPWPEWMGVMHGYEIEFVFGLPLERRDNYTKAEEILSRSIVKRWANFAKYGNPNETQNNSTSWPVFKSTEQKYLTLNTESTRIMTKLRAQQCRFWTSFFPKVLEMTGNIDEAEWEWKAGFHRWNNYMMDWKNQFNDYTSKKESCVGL
Description: Inhibition of human serum BuChE using S-butyrylthiocholine iodide as substrate preincubated for 5 mins followed by substrate addition by Ellman's method

Acetylcholinesterase [3] = target: T1, Acetylcholinesterase; assay: Potency index, ratio of IC50 for donepezil to IC50 for test compound for inhibition of human recombinant AChE
SH-SY5Y [4] = assay: Cytotoxicity against human SH-SY5Y cells assessed as cell survival at 1 to 50 uM after 24 hrs by MTT assay; format: cell-based
SH-SY5Y [5] = assay: Neuroprotective activity against H2O2-induced oxidative stress-associated death in human SH-SY5Y cells assessed as increase in cell viability at 1 to 10 uM incubated for 24 hrs prior to H2O2 challenge measured after 24 hrs by MTT assay; format: functional, cell-based
Acetylcholinesterase [6] = target: T1, Acetylcholinesterase; settings: 0.05 to 0.2 uM
SH-SY5Y [7] = assay: Neuroprotective activity against H2O2-induced oxidative stress-associated death in human SH-SY5Y cells assessed as increase in cell viability at 10 uM incubated for 24 hrs prior to H2O2 challenge measured after 24 hrs by MTT assay; format: functional, cell-based
[8] = Antioxidant activity assessed as trolox equivalent of AAPH radical scavenging activity; format: physicochemical

Row | Structure (SMILES) | IC50 (Acetylcholinesterase [1]) [µM] | Ratio IC50 (Homo sapiens) | Activity [2] [umolequiv/umol] | IC50 (Cholinesterase) [µM] | Ratio IC50 (Acetylcholinesterase [3]) | Activity (SH-SY5Y [4]) | Activity (SH-SY5Y [5]) | inhibition (Acetylcholinesterase [6]) | Activity (SH-SY5Y [7]) | Activity [8] [umolequiv/umol]
1 | COc1ccc2[nH]cc(CCNC(=O)CCc3cc[n+](Cc4cccc(F)c4)cc3)c2c1.[Br-] | 0.44 | 1.6 | 2.45 | 0.72 |  |  |  |  |  | 
2 | O=C(NCCc1c[nH]c2ccccc12)c1ccc[n+](Cc2ccccc2F)c1.[Br-] | 28.6 | 0.01 | 1.47 | 0.34 |  |  |  |  |  | 
3 | COc1ccc2[nH]cc(CCNC(=O)c3cc[n+](Cc4cccc(F)c4)cc3)c2c1.[Br-] | 3.8 | 2.1 | 1.87 | 7.9 |  |  |  |  |  | 
4 | O=C(NCCc1c[nH]c2ccccc12)c1cc[n+](Cc2cccc(F)c2)cc1.[Br-] | 3.9 | 1.3 | 1.41 | 5.1 |  |  |  |  |  | 
5 | O=C(NCCc1c[nH]c2ccccc12)c1cc[n+](Cc2ccc(F)cc2)cc1.[Br-] | 3.4 | 1.4 | 1.32 | 4.8 |  |  |  |  |  | 
6 | Cc1ccc(C[n+]2ccc(C(=O)NCCc3c[nH]c4ccccc34)cc2)cc1.[Br-] | 5.7 | 1.6 | 1.72 | 8.9 |  |  |  |  |  | 
7 | COc1ccc2[nH]cc(CCNC(=O)/C=C/c3cc[n+](Cc4ccc(F)cc4)cc3)c2c1.[Br-] | 0.21 | 3.4 | 3.51 | 0.71 |  |  |  |  |  | 
8 | O=C(NCCc1c[nH]c2ccccc12)c1cc[n+](Cc2ccccc2)cc1.[Br-] | 4.2 | 0.67 | 1.29 | 2.8 |  |  |  |  |  | 
9 | O=C(NCCc1c[nH]c2ccccc12)c1cc[n+](Cc2ccccc2F)cc1.[Br-] | 3.2 | 1.3 | 1.14 | 4.1 |  |  |  |  |  | 
10 | COc1ccc2[nH]cc(CCNC(=O)CCc3cc[n+](Cc4ccccc4F)cc3)c2c1.[Br-] | 0.53 | 1.6 | 2.51 | 0.86 |  |  |  |  |  | 
11 | COc1ccc2[nH]cc(CCNC(=O)c3cc[n+](Cc4ccc(OC(=O)N(C)C)cc4)cc3)c2c1.[Br-] | 1.3 | 0.06 | 2.04 | 0.08 | 70 | Non-toxic | Active |  |  | 
12 | COc1ccc2[nH]cc(CCNC(=O)c3cc[n+](Cc4ccc(F)cc4)cc3)c2c1.[Br-] | 5.1 | 1.5 | 2.09 | 7.5 |  |  |  |  |  | 
13 | COc1ccc2[nH]cc(CCNC(=O)/C=C/c3cc[n+](Cc4cccc(F)c4)cc3)c2c1.[Br-] | 0.11 | 10 | 3.41 | 1.1 |  | Non-toxic | Active | Active |  | 
14 | N#Cc1ccc(C[n+]2ccc(C(=O)NCCc3c[nH]c4ccccc34)cc2)cc1.[Br-] | 22.9 | > 4.4 | 1.56 |  |  |  |  |  |  | 
15 | COc1ccc2[nH]cc(CCNC(=O)/C=C/c3cc[n+](Cc4ccccc4F)cc3)c2c1.[Br-] | 0.26 | 8.8 | 3.66 | 2.3 |  |  |  |  |  | 
16 | COc1ccc2[nH]cc(CCNC(C)=O)c2c1 [MELATONIN] |  |  | 2.34 |  |  |  |  |  | Active | 2
17 | COc1ccc2[nH]cc(CCNC(=O)c3cc[n+](Cc4ccccc4F)cc3)c2c1.[Br-] | 3.3 | 2.1 | 2.02 | 6.8 |  |  |  |  |  | 
18 | O=C(NCCc1c[nH]c2ccccc12)c1ccc[n+](Cc2ccccc2)c1.[Br-] | 30.5 | 0.009 | 1.49 | 0.28 |  |  |  |  |  | 
19 | COc1ccc2[nH]cc(CCNC(=O)CCc3cc[n+](Cc4ccc(F)cc4)cc3)c2c1.[Br-] | 0.58 | 1.1 | 2.49 | 0.65 |  |  |  |  |  | 
20 | Cc1cccc(C[n+]2ccc(C(=O)NCCc3c[nH]c4ccccc34)cc2)c1.[Br-] | 2.7 | 2.1 | 1.36 | 5.8 |  |  |  |  |  | 
